{
  "source": "patent US11655217B2",
  "about": "“Pyrazole MAGL inhibitors” (H. Lundbeck A/S, priority 2017, dated 2023)",
  "key": {"FAAH": {"molecular_target": "FAAH (Mus musculus (Mouse), UniProt O08914)", "sequence (O08914 whole entry)": "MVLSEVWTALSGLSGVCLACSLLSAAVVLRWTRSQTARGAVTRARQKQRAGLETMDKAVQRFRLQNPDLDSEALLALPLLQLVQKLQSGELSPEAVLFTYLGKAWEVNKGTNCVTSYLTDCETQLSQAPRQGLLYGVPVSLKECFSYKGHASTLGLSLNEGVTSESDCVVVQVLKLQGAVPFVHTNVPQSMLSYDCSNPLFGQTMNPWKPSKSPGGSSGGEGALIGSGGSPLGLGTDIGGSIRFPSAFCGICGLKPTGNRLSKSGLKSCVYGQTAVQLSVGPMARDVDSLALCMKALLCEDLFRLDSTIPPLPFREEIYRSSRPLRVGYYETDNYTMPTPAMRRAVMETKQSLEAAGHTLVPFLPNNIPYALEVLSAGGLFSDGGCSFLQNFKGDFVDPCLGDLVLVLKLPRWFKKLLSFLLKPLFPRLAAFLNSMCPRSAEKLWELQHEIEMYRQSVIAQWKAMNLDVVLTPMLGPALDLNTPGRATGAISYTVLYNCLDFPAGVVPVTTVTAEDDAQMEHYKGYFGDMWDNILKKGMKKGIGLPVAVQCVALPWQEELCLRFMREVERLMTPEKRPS", "assay": "Mouse brain proteomes from inhibitor treated mice (oral gavage, sacrificed 4 h after administration, ABPP analysis), FAAH", "details": "5 mg/kg oral gavage", "procedure": "(§1) Preparation of Mouse Brain Proteomes from Inhibitor Treated Mice.\n(§2) Inhibitors were administered to wild-type C57Bl/6J by oral gavage in a vehicle of polyethylene glycol."}, "MAGL": {"molecular_target": "MAGL (Mus musculus (Mouse), UniProt O35678)", "sequence (O35678 whole entry)": "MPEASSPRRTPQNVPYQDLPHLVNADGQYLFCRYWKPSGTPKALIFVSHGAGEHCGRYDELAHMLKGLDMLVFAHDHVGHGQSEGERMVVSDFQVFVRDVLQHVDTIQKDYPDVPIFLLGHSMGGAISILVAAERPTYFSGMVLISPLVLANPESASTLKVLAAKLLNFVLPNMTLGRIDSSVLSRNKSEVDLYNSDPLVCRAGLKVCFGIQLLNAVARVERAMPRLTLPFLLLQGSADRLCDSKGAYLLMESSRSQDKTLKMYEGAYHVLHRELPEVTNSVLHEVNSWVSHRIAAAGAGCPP", "assay": "Mouse brain proteomes from inhibitor treated mice (oral gavage, sacrificed 4 h after administration, ABPP analysis)", "details": "5 mg/kg oral gavage", "procedure": "as §1, §2"}},
  "data": [
    {"smiles": "Cc1cn(C(=O)N2CCC3(CC2)CN(Cc2ccc(C(F)(F)F)cc2N2CCCC2)C3)nc1C(=O)O", "note": "[Example 135, 4-methyl-1-(2-(2-(pyrrolidin-1-yl)-4-(trifluoromethyl)benzyl)-2,7-diazaspiro[3.5]no-nane-7-carbonyl)-1H-pyrazole-3-carboxylic acid]", "values": [
      {"measurement": "FAAH % inh. 5 mg/kg (mouse)", "setting": "FAAH", "result": "D (% inhibition is greater than or equal to 0% and less than 25%)"},
      {"measurement": "MAGL % inh. 5 mg/kg (mouse)", "setting": "MAGL", "result": "D (% inhibition is greater than or equal to 0% and less than 25%)"}
    ]},
    {"smiles": "O=C(O)c1nn(C(=O)N2CCC3(CCCN3Cc3cc4ccc(C(F)(F)F)cc4s3)CC2)cc1Cl", "note": "[Example 139, 4-chloro-1-(1-((6-(trifluoromethyl)benzo[b]thiophen-2-yl)methyl)-1,8-diazaspiro[4.5]decane-8-carbonyl)-1H-pyrazole-3-carboxylic acid]", "values": [
      {"measurement": "FAAH % inh. 5 mg/kg (mouse)", "setting": "FAAH", "result": "D (% inhibition is greater than or equal to 0% and less than 25%)"},
      {"measurement": "MAGL % inh. 5 mg/kg (mouse)", "setting": "MAGL", "result": "D (% inhibition is greater than or equal to 0% and less than 25%)"}
    ]},
    {"smiles": "O=C(O)c1nn(C(=O)N2CC3CN(Cc4ccc(N5CCCC5)cc4C(F)(F)F)CC3C2)cc1Cl", "note": "(stereo not drawn) [Example 140, 4-chloro-1-(5-(4-(pyrrolidin-1-yl)-2-(trifluoromethyl)benzyl)octahydro-pyrrolo[3,4-c]pyrrole-2-carbonyl)-1H-pyrazole-3-carboxylic acid]", "values": [
      {"measurement": "FAAH % inh. 5 mg/kg (mouse)", "setting": "FAAH", "result": "D (% inhibition is greater than or equal to 0% and less than 25%)"},
      {"measurement": "MAGL % inh. 5 mg/kg (mouse)", "setting": "MAGL", "result": "D (% inhibition is greater than or equal to 0% and less than 25%)"}
    ]},
    {"smiles": "O=C(O)c1nn(C(=O)N2CCC3(CCN(Cc4cc(Cl)ccc4C(F)(F)F)C3)CC2)cc1C(F)(F)F", "note": "[Example 148, 1-(2-(5-chloro-2-(trifluoromethyl)benzyl)-2,8-diazaspiro[4.5]decane-8-carbonyl)-4-(trifluoromethyl)-1H-pyrazole-3-carboxylic acid]", "values": [
      {"measurement": "FAAH % inh. 5 mg/kg (mouse)", "setting": "FAAH", "result": "C (% inhibition is greater than or equal to 25% and less than 50%)"},
      {"measurement": "MAGL % inh. 5 mg/kg (mouse)", "setting": "MAGL", "result": "D (% inhibition is greater than or equal to 0% and less than 25%)"}
    ]},
    {"smiles": "O=C(O)c1ccn(C(=O)N2C[C@H]3C[C@H](OCc4cccc(C(F)(F)F)c4)C[C@H]3C2)n1", "note": "[Example 157, 1-(trans-5-((3-(trifluoromethyl)benzyl)oxy)octa-hydrocyclopenta[c]pyrrole-2-carbonyl)-1H-pyrazole-3-carboxylic acid]", "values": [
      {"measurement": "FAAH % inh. 5 mg/kg (mouse)", "setting": "FAAH", "result": "D (% inhibition is greater than or equal to 0% and less than 25%)"},
      {"measurement": "MAGL % inh. 5 mg/kg (mouse)", "setting": "MAGL", "result": "D (% inhibition is greater than or equal to 0% and less than 25%)"}
    ]},
    {"smiles": "O=C(O)c1ccn(C(=O)N2C[C@H]3C[C@H](OCc4cccc(Oc5ccc(Cl)cc5)c4)C[C@H]3C2)n1", "note": "[Example 158, 1-(trans-5-((3-(4-chlorophenoxy)benzyl)oxy)octa-hydrocyclopenta[c]pyrrole-2-carbonyl)-1H-pyrazole-3-carboxylic acid]", "values": [
      {"measurement": "FAAH % inh. 5 mg/kg (mouse)", "setting": "FAAH", "result": "D (% inhibition is greater than or equal to 0% and less than 25%)"},
      {"measurement": "MAGL % inh. 5 mg/kg (mouse)", "setting": "MAGL", "result": "D (% inhibition is greater than or equal to 0% and less than 25%)"}
    ]},
    {"smiles": "Cc1c(CO[C@H]2C[C@@H]3CN(C(=O)n4ccc(C(=O)O)n4)C[C@@H]3C2)cccc1C(F)(F)F", "note": "[Example 159, 1-(trans-5-((2-methyl-3-(trifluoromethyl)benzyl)oxy)octa-hydrocyclopenta[c]pyrrole-2-carbonyl)-1H-pyrazole-3-carboxylic acid]", "values": [
      {"measurement": "FAAH % inh. 5 mg/kg (mouse)", "setting": "FAAH", "result": "D (% inhibition is greater than or equal to 0% and less than 25%)"},
      {"measurement": "MAGL % inh. 5 mg/kg (mouse)", "setting": "MAGL", "result": "D (% inhibition is greater than or equal to 0% and less than 25%)"}
    ]},
    {"smiles": "O=C(O)c1ccn(C(=O)N2CCC3(CCCN3Cc3cc4ccc(C(F)(F)F)cc4s3)CC2)n1", "note": "[Example 185, 1-(1-((6-(trifluoromethyl)-benzo[b]thiophen-2-yl)methyl)-1,8-diazaspiro[4.5]-decane-8-carbonyl)-1H-pyrazole-3-carboxylic acid]", "values": [
      {"measurement": "FAAH % inh. 5 mg/kg (mouse)", "setting": "FAAH", "result": "D (% inhibition is greater than or equal to 0% and less than 25%)"},
      {"measurement": "MAGL % inh. 5 mg/kg (mouse)", "setting": "MAGL", "result": "D (% inhibition is greater than or equal to 0% and less than 25%)"}
    ]},
    {"smiles": "O=C(O)c1ccn(C(=O)N2CCN(Cc3cc4cc(Cl)ccc4s3)CC2)n1", "note": "[Example 187, 1-(4-((5-chlorobenzo[b]thio-phen-2-yl)methyl)piperazine-1-carbonyl)-1H-pyrazole-3-carboxylic acid]", "values": [
      {"measurement": "FAAH % inh. 5 mg/kg (mouse)", "setting": "FAAH", "result": "D (% inhibition is greater than or equal to 0% and less than 25%)"},
      {"measurement": "MAGL % inh. 5 mg/kg (mouse)", "setting": "MAGL", "result": "D (% inhibition is greater than or equal to 0% and less than 25%)"}
    ]},
    {"smiles": "Cc1c(CN2CCN(C(=O)n3ccc(C(=O)O)n3)CC2)[nH]c2ccc(Cl)cc12", "note": "[Example 188, 1-(4-((5-chloro-3-methyl-1H-indol-2-yl)methyl)piperazine-1-carbonyl)-1H-pyrazole-3-carboxylic acid]", "values": [
      {"measurement": "FAAH % inh. 5 mg/kg (mouse)", "setting": "FAAH", "result": "D (% inhibition is greater than or equal to 0% and less than 25%)"},
      {"measurement": "MAGL % inh. 5 mg/kg (mouse)", "setting": "MAGL", "result": "D (% inhibition is greater than or equal to 0% and less than 25%)"}
    ]},
    {"smiles": "NC(=O)c1ccn(C(=O)N2CCN(Cc3cccc(C(F)(F)F)c3N3CCOCC3)CC2)n1", "note": "[Example 199, 1-(4-(2-morpholino-3-(trifluoromethyl)benzyl)piperazine-1-carbonyl)-1H-pyrazole-3-carboxamide]", "values": [
      {"measurement": "FAAH % inh. 5 mg/kg (mouse)", "setting": "FAAH", "result": "D (% inhibition is greater than or equal to 0% and less than 25%)"},
      {"measurement": "MAGL % inh. 5 mg/kg (mouse)", "setting": "MAGL", "result": "A (% inhibition is greater than or equal to 75%)"}
    ]},
    {"smiles": "CN(Cc1ccc(C(F)(F)F)cc1N1C2CCC1COC2)C1(C)CCN(C(=O)n2ccc(C(=O)O)n2)CC1", "note": "[Example 207, 1-(4-((2-(3-oxa-8-azabicyclo[3.2.1]octan-8-yl)-4-(trifluoromethyl)benzyl)(methyl)-amino)-4-methyl-piperidine-1-carbonyl)-1H-pyrazole-3-carboxylic acid]", "values": [
      {"measurement": "FAAH % inh. 5 mg/kg (mouse)", "setting": "FAAH", "result": "D (% inhibition is greater than or equal to 0% and less than 25%)"},
      {"measurement": "MAGL % inh. 5 mg/kg (mouse)", "setting": "MAGL", "result": "D (% inhibition is greater than or equal to 0% and less than 25%)"}
    ]},
    {"smiles": "O=C(O)c1ccn(C(=O)N2CCC3(CCN(Cc4cccc(Oc5ccc(Cl)cc5)c4)C3)CC2)n1", "note": "[Example 210, 1-(2-(3-(4-chlorophenoxy)benzyl)-2,8-diazaspiro[4.5]decane-8-carbonyl)-1H-pyrazole-3-carboxylic acid]", "values": [
      {"measurement": "FAAH % inh. 5 mg/kg (mouse)", "setting": "FAAH", "result": "D (% inhibition is greater than or equal to 0% and less than 25%)"},
      {"measurement": "MAGL % inh. 5 mg/kg (mouse)", "setting": "MAGL", "result": "D (% inhibition is greater than or equal to 0% and less than 25%)"}
    ]},
    {"smiles": "O=C(O)c1ccn(C(=O)N2CCN(Cc3cccc(Cl)c3N3CC4COCC4C3)CC2)n1", "note": "(stereo not drawn) [Example 211, 1-(4-(3-chloro-2-(tetrahydro-1H-furo[3,4-c]pyrrol-5(3H)-yl)benzyl)piperazine-1-carbonyl)-1H-pyrazole-3-carboxylic acid]", "values": [
      {"measurement": "FAAH % inh. 5 mg/kg (mouse)", "setting": "FAAH", "result": "D (% inhibition is greater than or equal to 0% and less than 25%)"},
      {"measurement": "MAGL % inh. 5 mg/kg (mouse)", "setting": "MAGL", "result": "D (% inhibition is greater than or equal to 0% and less than 25%)"}
    ]},
    {"smiles": "O=C(O)c1ccn(C(=O)N2CCN(Cc3cccc(Cl)c3N3C4CCC3COC4)CC2)n1", "note": "[Example 212, 1-(4-(2-(3-oxa-8-azabicyclo[3.2.1]octan-8-yl)-3-chlorobenzyl)piper-azine-1-carbonyl)-1H-pyrazole-3-carboxylic acid]", "values": [
      {"measurement": "FAAH % inh. 5 mg/kg (mouse)", "setting": "FAAH", "result": "D (% inhibition is greater than or equal to 0% and less than 25%)"},
      {"measurement": "MAGL % inh. 5 mg/kg (mouse)", "setting": "MAGL", "result": "D (% inhibition is greater than or equal to 0% and less than 25%)"}
    ]}
  ]
}
